Laboratory results published in EP2292587A1, “PHARMACEUTICAL COMPOSITION FOR INHIBITING THE TRANSCRIPTION FACTOR INDUCIBLE BY HYPOXIA, MODULATORS OF PATHOLOGICAL PROCESSES OF ANGIOGENESIS, ONCOGENESIS, INFLAMMATION, APOPTOSIS, AND CELLULAR THERAPY” (Fundacion De La Comunidad Valenciana Centro De …, priority 2008, dated 2009).

tested on: HIF; experiment: luciferase cell assay based on the HIF response elements (HRE), HeLa 9XHRE-LUC; parameters: species or system human; details: Homo sapiens; cell assay based on the HIF response elements (Example 1), HeLa 9XHRE-LUC; read-out: IC50 HRE
Text: In order to identify direct inhibitors of the activity of HIF, a stable recombinant line was first constructed from the cervical tumor line, known in scientific literature as HeLa, which contained the deoxyribonucleic acid (DNA) sequences of the region located between positions -985 and -951 of the human vascular endothelial growth factor (hVEGF), repeated nine times (9X) and fused to the luciferase reporter gene (LUC). This plasmid, provided by Dr. Manuel Ortiz de Landazuri from the Hospital de La Princesa of Madrid, called 9XHRE-LUC, was prepared using a commercial kit (Endofree Maxi-Prep; Qiagen, Inc., Valencia, CA). The transfections were performed with FuGene6 (Roche, cat.1814443) according to the manufacturer's instructions, the µg DNA: µg FuGene ratio was 1:3. The transfected cell lines were generated by cotransfection with the vector pCMV-Hygrom which expressed a hygromycin resistance gene in mammalian cells, allowing the selection of the transfected clones. After 48 hours, the growth medium was substituted with fresh medium containing 100 µg/ml hygromycin (Sigma), the clones resistant to the antibiotic were collected and analyzed by means of RT-PCR to select the clone with the desired construct. Routinely, the HeLa 9XHRE-LUC cell line was maintained in exponential growth by means of performing subcultures in DMEM (Invitrogen-Life Technologies, Inc., Carlsbad, CA), supplemented with 10% inactivated fetal bovine serum (Whittacker Bioproducts), penicillin (50 IU/ml), streptomycin (50 µg/ml) (Invitrogen-Life Technologies, Inc., Carlsbad, CA). The cells were cultured at 37°C with a humidified atmosphere containing 5% CO2 and 300 nM Desferoxamine (DFX; Sigma St. Louis, MO).
The compounds of the Collection of the CIPF, coming from a selection of commercial collections of Sigma-Aldrich, were solubilized in DMSO at a final concentration of 5 mM and preserved at -80°C. The concentration of these compounds in the luciferase assay was 1 mcM finally in the well of the multi-well plate in which the reaction was carried out. The luciferase assays were performed in white 96-well plates (Valtecknova ref. 3917), using the kit Bright-Glo™ Luciferase Assay System (Promega, Inc., Madison, WI) following the instructions supplied by the manufacturer.
According to the methodology of the cell assay based on the HIF response elements (Example 1), the intermediate compounds of the synthesis and several synthesized analogs were tested to obtain the SAR of FM19G11.

IC50 [nM]	SMILES
300	Cc1ccc(C(=O)COC(=O)c2cccc(NC(=O)c3ccc(C(F)(F)F)cc3C(F)(F)F)c2)cc1 [Compound 13, 2-oxo-2-(p-tolyl)ethyl 3-(2,4-bis(trifluoromethyl)benzamido)benzoate]
> 1000	Cc1ccc(C(=O)COC(=O)c2cccc(NC(=O)c3ccccc3)c2)cc1 [Compound 16, 2-oxo-2-(p-tolyl)ethyl 3-(benzamido)benzoate]
2500	Cc1ccc(C(=O)COC(=O)c2cccc(NC(=O)c3ccc([N+](=O)[O-])cc3)c2)cc1 [Compound 22, 2-oxo-2-(p-tolyl)ethyl 3-(4-nitrobenzamido)benzoate]
> 1000	COC(=O)c1cccc(NC(=O)c2ccccc2[N+](=O)[O-])c1 [Compound 23, methyl 3-(2-nitrobenzamido)benzoate]
1400	O=C(O)c1cccc(NC(=O)c2ccccc2[N+](=O)[O-])c1 [Compound 24, 3-(2-nitrobenzamido)benzoic acid]
2800	Cc1ccc(C(=O)COC(=O)c2cccc(NC(=O)c3ccccc3[N+](=O)[O-])c2)cc1 [Compound 25, 2-oxo-2-(p-tolyl)ethyl 3-(2-nitrobenzamido)benzoate]

Continued, compound first:

SMILES	IC50 [nM]
COC(=O)c1cccc(NC(=O)c2ccc([N+](=O)[O-])cc2[N+](=O)[O-])c1 [Compound 2, methyl 3-((2,4-dinitro)benzamido)benzoate]	> 1000
O=C(O)c1cccc(NC(=O)c2ccc([N+](=O)[O-])cc2[N+](=O)[O-])c1 [Compound 3, 3-((2,4-dinitro)benzamido)benzoic acid]	> 1000
COC(=O)c1cccc(NC(=O)c2ccc(C(F)(F)F)cc2[N+](=O)[O-])c1 [Compound 5, methyl 3-(2-nitro-4-(trifluoromethyl)benzamido)benzoate]	> 1000
O=C(O)c1cccc(NC(=O)c2ccc(C(F)(F)F)cc2[N+](=O)[O-])c1 [Compound 6, 3-(2-nitro-4-(trifluoromethyl)benzamido)benzoic acid]	> 1000
Cc1ccc(C(=O)COC(=O)c2cccc(NC(=O)c3ccc(C(F)(F)F)cc3[N+](=O)[O-])c2)cc1 [Compound 7, 2-oxo-2-(p-tolyl)ethyl 3-(2-nitro-4-(trifluoromethyl)benzamido)benzoate]	84
COC(=O)c1cccc(NC(=O)c2ccc([N+](=O)[O-])cc2C(F)(F)F)c1 [Compound 8, methyl 3-(4-nitro-2-(trifluoromethyl)benzamido)benzoate]	> 1000
O=C(O)c1cccc(NC(=O)c2ccc([N+](=O)[O-])cc2C(F)(F)F)c1 [Compound 9, 3-(4-nitro-2-(trifluoromethyl)benzamido)benzoic acid]	> 1000
Cc1ccc(C(=O)COC(=O)c2cccc(NC(=O)c3ccc([N+](=O)[O-])cc3C(F)(F)F)c2)cc1 [Compound 10, 2-oxo-2-(p-tolyl)ethyl 3-(4-nitro-2-(trifluoromethyl)benzamido)benzoate]	140
O=C(O)c1cccc(NC(=O)c2ccc(C(F)(F)F)cc2C(F)(F)F)c1 [Compound 12, 3-(2,4-bis-(trifluoromethyl)benzamido)benzoic acid]	> 1000
O=C(COC(=O)c1cccc(NC(=O)c2ccc([N+](=O)[O-])cc2[N+](=O)[O-])c1)c1ccccc1 [Compound 19, 2-phenyl-2-oxoethyl 3-(2,4-(dinitro)benzamido)benzoate]	> 1000
O=C(O)c1ccc(C(=O)COC(=O)c2cccc(NC(=O)c3ccc([N+](=O)[O-])cc3[N+](=O)[O-])c2)cc1 [Compound 29, 4-(2-(3-(2,4-dinitrobenzamido)benzoyloxy)-acetyl)benzoic acid]	1400

same assay, conditions: cell assay based on the HIF response elements (Example 1), HeLa 9XHRE-LUC; read-out: IC50 HRE

IC50 [nM]	SMILES
1000	O=C(COC(=O)c1cccc(NC(=O)c2ccc([N+](=O)[O-])cc2[N+](=O)[O-])c1)c1ccc(C(F)(F)F)cc1 [Compound 17, 2-oxo-2-(4-trifluoromethyl) ethyl 3-(2,4-(dinitro)benzamido)benzoate]
360	O=C(COC(=O)c1cccc(NC(=O)c2ccc([N+](=O)[O-])cc2[N+](=O)[O-])c1)c1ccc(O)cc1 [Compound 26, 2-(4-hydroxyphenyl)-2-oxoethyl 3-(2,4-(dinitro)benzamido)benzoate]
